Experimental findings from patent US20190256827A1, “EPIGENOME EDITING SYSTEMS AND METHODS” (STC.UNM, priority 2017, published 2019) are described below.

In test [1] the test system is IL1RN locus in HEK293T cells. Description: ChIP-qPCR of FLAG-ABI-P300 and H3K27Ac at the IL1RN locus (dCas9-PYL-HA, FLAG-ABI-P300, IL1RN sgRNAs). The format is cell-based, human. The protocol:
To examine the recruitment of FLAG-ABI-P300, HEK293T cells were co-transfected with IL1RN sgRNAs, dCas9-PYL-HA and FLAG-ABI-P300 plasmids for 24 hours. Cells were then either treated or not treated with 100 μM ABA for another 24 hours before being harvested. Portions of the cell lysates were analyzed by using ChIP (with anti-FLAG antibody) and qPCR assays to quantify the level of FLAG-ABI-P300. […] To determine if the level of H3K27Ac changes in response to the FLAG-ABI-P300 localization, portions of the cell lysates produced in the above experiment were subjected to ChIP (using anti-H3K27Ac antibody) and qPCR assays to quantify the H3K27Ac enrichment.
Human embryonic kidney cell HEK293T (American Type Culture Collection, Manassas, Va.) was cultured in Dulbecco's modified Eagle's medium (DMEM) (Gibco) with 10% FBS (Atlanta Biologicals), 1× GlutaMax (Gibco, Thermo Fisher Scientific, Inc., Waltham, Mass.), and 1× penicillin/streptomycin (Pen/Strep; Gibco, Thermo Fisher Scientific, Inc., Waltham, Mass.). Cells (100,000/ml) were plated in 24-well or 10-cm cell culture plate the day before transfection. For each well of 24-well plate transfection, 500 ng of dCas9-PYL-HA, 420 ng of FLAG-ABI-P300, and a total amount of 200-ng mix of gRNAs, with a 50-ng per each gRNA, were mixed with 50×(v/w) Opti-MEM (Gibco, Thermo Fisher Scientific, Inc., Waltham, Mass.), then incubate with the same volume of 3 μg PEI-Opti-MEM solution for 20 minutes at room temperature. Then, 100 μL of PEI-combined plasmids were added to every single well of 24-well plate and cultured for 24 hours before experiments were performed. For a 10 cm plate, 1 mL of PEI-combined plasmids were needed. After six hours transfection, cells were washed and incubated for another 1-72 hours before experiments were performed.
ChIP protocol was optimized from the method in Molecular Cloning, Fourth edition (Cold Spring Harbor Laboratory Press, 2012). In brief, cells cultured in a 10-cm plate were fixed with 1 mL of cross-linking buffer (0.1 M NaCl, 1 mM EDTA, 0.5 mM EGTA, 50 mM HEPES and 11% formaldehyde), and shaken in room temperature for 15 minutes. Then 1.1 mL of 1.25 M glycine was added to the solution to stop crosslinking. After washing three times in ice cold PBS, cells were scraped and suspended in 10 mL of lysis buffer (50 mM HEPES, 140 mM NaCl, 1 mM EDTA, 10% Glycerol, 0.5% NP40, 0.25% Triton X-100), and rocked at 4° C. for 10 minutes. Cells were centrifuged at 1,000×g for 10 minutes and were resuspended in protein extraction buffer (200 mM NaCl, 1 mM EDTA, 0.5 mM EGTA, 10 mM Tris). Nuclei were pelleted by centrifuging at 1,000×g for 15 minutes at 4° C., resuspended in 2 mL of chromatin extraction buffer (1 mM EDTA, 0.5 mM EGTA, 10 mM Tris), and divided into six sonication tubes. Then, the samples were sonicated for 24 cycles at a 30 seconds on/30 seconds off protocol. Then samples were moved to a new centrifuge tube and insoluble debris were removed by centrifuge at 2,000×g for 20 minutes at 4° C. 10% volume of samples were stored at −80° C. as 10% input control. […] Then, sample-bound beads were washed eight times with RIPA buffer (50 mM HEPES, 1 mM EDTA, 1% NP40, 0.7% DOC, 0.5 M LiCl, 1× protease inhibitor complete cocktail), and finally re-suspended in TE (pH 8.0) buffer to wash. Then TE buffer was removed completely, 50 μL of elution buffer (10 mM Tris, 1 mM EDTA, 1% SDS) was added and the samples were incubated for 10 minutes at 65° C. and rocked every two minutes. The liquid was collected, 120 μL of elution buffer was added, and the samples were incubated at 65° C. overnight. Samples of 10% input were incubated with […] elution buffer at 65° C. overnight, too. To remove histones, washing buffer (140 μL of TE buffer, 3 μL of 20 mg/ml glycogen and 7 μL of 10 mg/ml Proteinase K) was added and incubated two hours at 37° C. Then ChIP samples were purified with phenol:chloroform:isoamyl alcohol (25:24:1) twice, then purified aqueous in chloroform. […]
(Quantitative PCR measures a nucleic acid by following its amplification.)

The test system of test [2] is luciferase reporter gene (fos-Luc) in CHO cells. The test can be described thus: ABA-induced luciferase expression using integrated CRISPR/CIP (PYL-VP80 / dCas9-NLS-ABI, fos-Luc reporter, sgRNAs). In kind it is cell-based. Particulars: CHO cells transfected for 24 hours; ABA 100 μM for 16 hours. The source says:
In one exemplary embodiment, ABA-induced ABI-PYL dimerization recruited a transcriptional activator to a DNA sequence targeted by sgRNAs and dCas9, and turn on the expression of a reporter gene. Several DNA plasmids were constructed for this purpose, including: (i) a DNA plasmid (PYL-VP80-ires-dCas9-NLS-ABI) encoding the transcriptional activator VP80 fused to PYL (PYL-VP80) and dCas9 with a nuclear localization signal (NLS) fused to ABI (dCas9-NLS-ABI); (ii) a luciferase reporter gene (fos-Luc) that contains the fos minimal promoter to give minimal background expression; and (iii) several sgRNA expression constructs to target the upstream region (within 1.5 kb) of the luciferase gene. […] Also, specific combinations of multiple sgRNAs increased the induced expression level. In other applications, the fold induction can be improved by optimizing the targeting region of sgRNAs, the combination of different sgRNAs, and/or the framework of fusion proteins, which may lead to a better positioning of the recruited transcription machinery relative to the transcription start site. […] Since histone posttranslational modifications are generally present in an expanded region instead of a specific location (e.g., a transcription start site), the precise positioning may not be as critical for epigenome editing.

The mark [3] stands for this setting: IL1RN locus, time course after ABA addition.

In the case of `CC1=CC(=O)CC(C)(C)[C@@]1(O)/C=C/C(C)=C\C(=O)O` [ABA, abscisic acid], in test [1] (100 μM ABA for 24 hours vs not treated, anti-FLAG ChIP), the “FLAG-ABI-P300 level at the IL1RN locus” value is “increase in FLAG-ABI-P300 level”. In addition, in test [1] (24 h after ABA addition (100 μM) vs not treated, anti-H3K27Ac ChIP), the “H3K27Ac levels at the IL1RN locus” value is on record as “H3K27Ac levels increase”. In addition, the “stability of H3K27Ac at the IL1RN locus after ABA removal” value in test [1] (ABA for 12, 24 or 48 hours, then washed) was “the longer cells were treated with ABA, the slower H3K27Ac was removed after washing”. Also, in test [1] (ABA for 12, 24 or 48 hours, then washed with non-ABA media), the “FLAG-ABI-P300 level at the IL1RN locus after washing to remove ABA” value was “rapidly decreases to a near background level within one hour following washing”. In addition, in test [1] (setting [3]), the “time at which the level of H3K27Ac begins to rise” value is given as “one hour after ABA addition” and the “time until which H3K27Ac continues to increase” value is 48 h. For the same molecule, in test [1] (time course after ABA addition), the “time at which FLAG-ABI-P300 reaches a maximal level at the IL1RN locus” value came to 12 h and the “time of FLAG-ABI-P300 recruitment to the IL1RN locus after ABA addition” value is listed as “Within one hour”. In addition, in test [2], the luciferase expression entry is on record as “luciferase expression was induced”.
